# Where no end group is shown, it is not given here.
# System: HCT116 cells
# Experiment: Flow cytometry binding of biotinylated pHCT74 peptide
# Set-up: species or system human
# Description: We propose the use of biotinylated pHCT74 peptide and a chemical cross-linker, DTSSP, to identify the unknown target protein on the plasma membrane of HCT116 cells. A biotin molecule was conjugated to the C terminus of synthetic pHCT74 peptide. The binding characteristics of biotinylated pHCT74 peptide to HCT116 cells were evaluated by flow cytometry for analyzing the concentration dependency of the binding (FIG. 4B). […] The membrane proteins of HCT116 cells were bound with biotin-pHCT74 peptide, cross-linked by DTSSP; followed by SDS-PAGE separation and LC/MS/MS analysis. A sharp bands was detected by silver staining (FIG. 4C), and subsequently analyzed by LC/MS/MS after tryptic digestion. Twelve tryptic peptides were identified as alpha-enolase (ENO1) fragments by search algorithms based on MASCOT software. Coverage of the identified peptides was 57% of the alpha-enolase sequence and the probability score was 424 (FIG. 4D).
substance,measurement,value
biotinylated pHCT74 peptide: synthetic pHCT74 peptide with a biotin molecule conjugated to the C terminus (SSMDIVLRAPLMGGG-biotin),cell binding activity after C-terminal biotin addition,did not affect its cell binding activity
